This is an account of results in US4673747A, “Aminoalkylphenoxy derivatives” (Ikeda Mohando Co., Ltd., priority 1984, dated 1987).

For assay [1], the target named is T1, Histamine H2-Receptor (Cavia porcellus, UniProt P47747).
T1 construct: from tissue; host or cells: isolated atrium of male Hartley guinea pig
Also noted: species or system guinea pig (male Hartley). To be noted: isolated guinea pig atrium; negative logarithm of molar concentration; heart beats, histamine dose-response; read-out: Antagonistic Action against Histamine H2-Receptor (pA2) Determined by Using Atrium isolated from Guinea Pig (converted). As for the experimental part: A male Hartley guinea pig having a body weight of about 400 g was killed by cervical dislocation, and the artrium thereof was isolated and was suspended in an organ bath containing 50 ml of a modified Ringer solution and subjected to a tension of 1 g. The number of heart beats under such condition was recorded using a polygraph.
Initially, from 1×10^-7 mol to 3×10^-4 mol of histamine was allowed to act accumulatively to depict the curve of the dosage-reaction relationship. Likewise, the curve of the dosage of histamine-reaction relationship was depicted in the presence of 5×10^-7 mol to 1×10^-6 mol of the test sample which was injected 3 minutes before. The negative logarithm (pA2) of the molar concentration of the test sample required for moving the curve obtained by single administration of histamine parallel to the right side by a two-times concentration was calculated.

Assay [2] concerns Gastric acid secretion induced by histamine. Kind of assay: Inhibition effect on gastric acid secretion induced by histamine in pylorus ligated rat (subcutaneous). The note with it: histamine 3 mg/kg SC, average of five runs, * p<0.05, ** p<0.01 vs control group, read-out: Secretion of Gastric Acid in Rat, Inhibition Rate (%); for inhibition in vivo at 0.2 mg/kg: 0.2 mg/kg SC. The assay is classed as in vivo, rat (male Wistar). As for the experimental part: A male Wistar rat having a body weight of about 160 g and which had not fed for 24 hours was anesthetized by an intraperitonea dose of 1.2 g/kg of uretane. After ligating of pylorus and esophagus, the gaster anterior was incised and fitted with a double polyethylene cannula. The wall of the stomach was rinsed with 5 ml of saline at 30 minute intervals, and the quantities of gastric acid contained in each rinsing solution were measured by titration.
The basal acid secretion was initially measured three times, and then 0.2 mg/kg or 0.5 mg/kg of each of the compounds of this invention was administered subcutaneously and 3 mg/kg of histamine was administered subcutaneously after the lapse of an additional 30 minutes.
The quantity of gastric acid secreated after the operation was measured continuously for 3 hours. Within that measurement interval, three time points at which the increase in acid secretion reached a maximum level were selected, and the average quantity of gastric acid secreted at those time points was taken as the increase in acid secretion, which was compared with the increase in acid secretion of the control group to calculate the percent inhibition for secretion of gastric acid. [formula] (The result was shown as the average value of five runs.)

Assay [3] shares this test system. The assay can be described thus: Inhibitory effect of intraduodenally administered compounds on gastric acid secretion induced by histamine in rat. Type of assay: in vivo, rat (male Wistar). To be noted: intraduodenal, rat; for ED50: 0.5 h, 30 minutes before SC histamine, read-out: Median effective dose (ED50), Gastric Acid Secretion; for Efficacy Ratio relative to Cimetidine (Cimetidine = 1): from ED50; for ED50 value: times as effective as Cimetidine (activity ratio): text discussing Table 2.

T1 sequence (P47747 whole entry): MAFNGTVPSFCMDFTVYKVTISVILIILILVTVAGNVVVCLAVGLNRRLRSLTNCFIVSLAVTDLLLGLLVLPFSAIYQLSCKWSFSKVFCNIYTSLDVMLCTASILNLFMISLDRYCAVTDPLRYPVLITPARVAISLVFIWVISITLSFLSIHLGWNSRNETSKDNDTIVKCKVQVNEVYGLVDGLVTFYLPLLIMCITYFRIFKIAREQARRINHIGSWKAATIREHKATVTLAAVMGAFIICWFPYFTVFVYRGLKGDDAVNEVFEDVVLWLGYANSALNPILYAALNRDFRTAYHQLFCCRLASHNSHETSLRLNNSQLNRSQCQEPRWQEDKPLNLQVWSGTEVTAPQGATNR

For `C#CCNc1c(NC/C=C\COc2cccc(CN3CCCCC3)c2)c(=O)c1=O` [Ex. 4, 1-(2-propagylamino)-2-[4-<3-(1-piperidinomethyl)phenoxy>-cis-2-butenylamino]-1-cyclobuten-3,4-dione], the Kb in assay [1] was 776 nM. The inhibition in vivo at 0.2 mg/kg in assay [2] stood at 66%.

Take `Nc1c(NC/C=C/COc2cccc(CN3CCCCC3)c2)c(=O)c1=O` [Ex. 6, 1-amino-2-[4-<3-(1-piperidinomethyl)phenoxy>-trans-2-butenylamino]-1-cyclobuten-3,4-dione]: the Kb in assay [1] is 178 nM. Also, the inhibition in vivo at 0.2 mg/kg in assay [2] was 25%.

As for `CNc1c(NC/C=C/COc2cccc(CN3CCCCC3)c2)c(=O)c1=O` [Ex. 7, 1-methylamino-2-[4-<3-(1-piperidinomethyl)phenoxy>-trans-2-butenylamino]-1-cyclobuten-3,4-dione], in assay [1], the Kb is 513 nM. Besides, the inhibition in vivo at 0.2 mg/kg in assay [2] is 28%.

On to `Nc1c(NC/C=C\COc2cccc(CN3CCCC3)c2)c(=O)c1=O` [Ex. 8, 1-amino-2-[4-<3-(1-pyrrolidinomethyl)phenoxy>-cis-2-butenylamino]-1-cyclobuten-3,4-dione], for which the Kb in assay [1] is 151 nM. In addition, the inhibition in vivo at 0.2 mg/kg in assay [2] turned out to be 88%. For the same compound, in assay [3], the 50% effective dose (ED50) turned out to be 0.07 mg/kg and the “Efficacy Ratio relative to Cimetidine (Cimetidine = 1)” value (shortened to “Efficacy Ratio relative to Cimetidine”) was 10.3.

Regarding `Nc1n[nH]c(=O)nc1NC/C=C/COc1cccc(CN2CCCCC2)c1` [Ex. 11, 6-amino-5-[4-<3-(1-piperidinomethyl)phenoxy>-trans-2-butenylamino]-1,2,4-triazin-3-one], the Kb in assay [1] was 661 nM. In assay [2], the inhibition in vivo at 0.2 mg/kg is 88%. For the same compound, in assay [3], the ED50 was 0.44 mg/kg and the “Efficacy Ratio relative to Cimetidine” value was 16.4.

With `CNc1nn(C)c(=O)nc1NC/C=C/COc1cccc(CN2CCCCC2)c1` [Ex. 12, 2-methyl-6-methylamino-5-[4-<3-(1-piperidinomethyl)phenoxy>-trans-2-butenylamino]-1,2,4-triazin-3-one], in assay [1], the Kb is 1510 nM. For the same compound, the inhibition in vivo at 0.2 mg/kg in assay [2] was determined as 44%.

For `Cn1c(NC/C=C/COc2cccc(CN3CCCCC3)c2)cc(N)nc1=O` [Ex. 14, 1-methyl-4-amino-6-[4-<3-(1-piperidinomethyl)phenoxy>-trans-2-butenylamino]-(1H)-pyrimidin-2-one], the Kb in assay [1] is 7080 nM. In addition, in assay [2], the inhibition in vivo at 0.2 mg/kg is -9%.

On to `Nc1n[s+]([O-])nc1NC/C=C\COc1cccc(CN2CCCCC2)c1` (stereo not drawn) [Ex. 15], for which the Kb in assay [1] was 437 nM. Also, in assay [2] (0.5 mg/kg SC), the inhibition in vivo at 0.5 mg/kg was found to be 98%. For the same compound, in assay [3], the median effective dose (ED50) came to 0.066 mg/kg, the “Efficacy Ratio relative to Cimetidine” value came to 109.1 and the “ED50 value: times as effective as Cimetidine (activity ratio)” value (“ED50 value: times … (activity ratio)” for short) is listed as approximately 110 times.

Take `Nc1n[s+]([O-])nc1NC/C=C\COc1cccc(CN2CCCC2)c1` (stereo not drawn) [Ex. 17, 3-amino-4-[4-<3-(1-pyrrolidinomethyl)phenoxy>-cis-2-butenylamino]-1,2,5-thiadiazole-1-oxide]: the Kb in assay [1] is 97.7 nM. Also, the inhibition in vivo at 0.2 mg/kg in assay [2] amounted to 86%. In assay [3], the ED50 is 0.82 mg/kg and the “Efficacy Ratio relative to Cimetidine” value amounted to 8.8.

Regarding `CC(C)Nc1n[s+]([O-])nc1NC/C=C\COc1cccc(CN2CCCCC2)c1` (stereo not drawn) [Ex. 19, 3-isopropylamino-4-[4-<3-(1-piperidinomethyl)phenoxy>-cis-2-butenylamino]-1,2,5-thiadiazole-1-oxide], the Kb in assay [1] was 2400 nM. Besides, the inhibition in vivo at 0.2 mg/kg in assay [2] was found to be 82%. Further, in assay [3], the ED50 turned out to be 0.88 mg/kg and the “Efficacy Ratio relative to Cimetidine” value was 8.2.

Consider `CCCNc1n[s+]([O-])nc1NC/C=C\COc1cccc(CN2CCCCC2)c1` (stereo not drawn) [Ex. 20, 3-n-propylamino-4-[4-<3-(1-piperidinomethyl)phenoxy>-cis-2-butenylamino]-1,2,5-thiadiazol-1-oxide], for which the Kb in assay [1] is 389 nM. In assay [2], the inhibition in vivo at 0.2 mg/kg was found to be 88%. Further, in assay [3], the ED50 turned out to be 0.58 mg/kg and the “Efficacy Ratio relative to Cimetidine” value was 9.0.

Take `CN(C)Cc1cccc(OC/C=C\CNc2n[s+]([O-])nc2N)c1` (stereo not drawn) [Ex. 21, 3-<4-(3-dimethylaminomethylphenoxy)-cis-2-butenylamino>-4-amino-1,2,5-thiadiazole-1-oxide]: the Kb in assay [1] was 229 nM. The inhibition in vivo at 0.2 mg/kg in assay [2] was found to be 99%. In assay [3], the ED50 was 2 mg/kg and the “Efficacy Ratio relative to Cimetidine” value is 3.6.

As for `CNc1n[s+]([O-])nc1NC/C=C\COc1cccc(CN(C)C)c1` (stereo not drawn) [Ex. 22, 3-<4-(3-dimethylaminomethylphenoxy)-cis-2-butenylamino>-4-methylamino-1,2,5-thiadiazole-1-oxide], the Kb in assay [1] was 316 nM. Further, the inhibition in vivo at 0.2 mg/kg in assay [2] came out at 88%. In addition, in assay [3], the ED50 was 0.62 mg/kg and the “Efficacy Ratio relative to Cimetidine” value is given as 11.6.

For the compound `Nc1nnc(NC/C=C/COc2cccc(CN3CCCCC3)c2)s1` [Ex. 25, 2-amino-5-[4-<3-(1-piperidinomethyl)phenoxy>-trans-2-butenylamino]-1,3,4-thiadiazole], the Kb in assay [1] was 204 nM. For the same compound, the inhibition in vivo at 0.2 mg/kg in assay [2] turned out to be 77%.

For `CNc1nnc(NC/C=C/COc2cccc(CN3CCCCC3)c2)s1` [Ex. 26, 2-methylamino-5-[4-<3-(1-piperidinomethyl)-phenoxy>-trans-2-butenylamino]-1,3,4-thiadiazole], the Kb in assay [1] was 9550 nM. In addition, the inhibition in vivo at 0.2 mg/kg in assay [2] amounted to 45%.

Consider `Nc1nnc(NC/C=C\COc2cccc(CN3CCCCC3)c2)s1` [Ex. 27, 2-amino-5-[4-<3-(1-piperidinomethyl)-phenoxy>-cis-2-butenylamino]-1,3,4-thiadiazole], for which the Kb in assay [1] was 490 nM. Moreover, the inhibition in vivo at 0.2 mg/kg in assay [2] was 87%. In assay [3], the 50% effective dose (ED50) was found to be 0.45 mg/kg and the “Efficacy Ratio relative to Cimetidine” value turned out to be 16.0.

Take `CNc1nnc(NC/C=C\COc2cccc(CN3CCCCC3)c2)s1` [Ex. 28, 2-methylamino-5-[4-<3-(1-piperidinomethyl)-phenoxy>-cis-2-butenylamino]-1,3,4-thiadiazole]: the Kb in assay [1] was 4680 nM. Besides, the inhibition in vivo at 0.2 mg/kg in assay [2] came to 75%. In addition, in assay [3], the ED50 is 0.62 mg/kg and the “Efficacy Ratio relative to Cimetidine” value was determined as 11.6.

For `Nc1nnc(NC/C=C\COc2cccc(CN3CCCC3)c2)s1` [Ex. 29, 2-amino-5-[4-<3-(1-pyrrolidinomethyl)-phenoxy>-cis-2-butenylamino]-1,3,4-thadiazole], the Kb in assay [1] is 316 nM. Moreover, in assay [2], the inhibition in vivo at 0.2 mg/kg came out at 36%.

On to `CNc1nnc(NC/C=C\COc2cccc(CN3CCCC3)c2)s1` [Ex. 30, 2-methylamino-5-[4-<3-(1-pyrrolidinomethyl)-phenoxy>-cis-2-butenylamino]-1,3,4-thiadiazole], for which, in assay [1], the Kb was 550 nM. Moreover, in assay [2], the inhibition in vivo at 0.2 mg/kg was determined as 17%.

Take `CC1CCCCN1Cc1cccc(OC/C=C\CNc2c(N)c(=O)c2=O)c1` (stereo not drawn) [Ex. 33, 1-amino-2-[4-{3-<1-(2-methylpiperidino)-methyl>phenoxy}-cis-2-butenylamino]-1-cyclobutene-3,4-dione]: in assay [1], the Kb was 166 nM. Also, the inhibition in vivo at 0.2 mg/kg in assay [2] was 70%. In addition, in assay [3], the 50% effective dose (ED50) is 0.4 mg/kg and the “Efficacy Ratio relative to Cimetidine” value came to 18.0.

Take `NC1=NS(=O)(=O)N=C1NC/C=C\COc1cccc(CN2CCCCC2)c1` [Reference Ex. 1, 3-amino-4-[4-<3-(1-piperidinomethyl)phenoxy>-cis-2-butenylamino]-1,2,5-thiadiazole-1,1-dioxide, reference compound]: in assay [3], the 50% effective dose (ED50) was 0.2 mg/kg, the “Efficacy Ratio relative to Cimetidine” value came to 36.0 and the “ED50 value: times … (activity ratio)” value was 36 times.

As for `CNC1=NS(=O)(=O)N=C1NC/C=C\COc1cccc(CN2CCCCC2)c1` [Reference Ex. 2, 3-methylamino-4-[4-<3-(1-piperidinomethyl)phenoxy>-cis-2-butenylamino]-1,2,5-thiadiazole-1,1-dioxide, reference compound], in assay [3], the 50% effective dose (ED50) stood at 0.44 mg/kg, the “Efficacy Ratio relative to Cimetidine” value is 16.4 and the “ED50 value: times … (activity ratio)” value is given as 16 times.

What is called ED50 is the dose at which the effect has come halfway, by size or by number of responders.
